From patent US9708639B2, “Method for quantifying amino acids with pyrophosphate” (TOYAMA PREFECTURE, priority 2012, dated 2017)

Tests used:
Parameters in all cases: key: +: Activity was detected; −: Activity was not detected
Thermotoga-derived LysRS = molecular target: T1, Thermotoga-derived LysRS (Thermotoga maritima, UniProt Q9X231); assay: Qualitative test of AARS substrate specificity (molybdenum blue method); type: biochemical, Thermotoga maritima MSB8 strain; conditions: Tyr 1 mM, other amino acids 5 mM; hydroxylamine 1000 mM; LysRS 0.2 mg/ml (3 mU/ml); 30° C.
T1 construct: His tag (C); made in house; host or cells: Escherichia coli BL21 (DE3)
T1 sequence (Q9X231 1-502): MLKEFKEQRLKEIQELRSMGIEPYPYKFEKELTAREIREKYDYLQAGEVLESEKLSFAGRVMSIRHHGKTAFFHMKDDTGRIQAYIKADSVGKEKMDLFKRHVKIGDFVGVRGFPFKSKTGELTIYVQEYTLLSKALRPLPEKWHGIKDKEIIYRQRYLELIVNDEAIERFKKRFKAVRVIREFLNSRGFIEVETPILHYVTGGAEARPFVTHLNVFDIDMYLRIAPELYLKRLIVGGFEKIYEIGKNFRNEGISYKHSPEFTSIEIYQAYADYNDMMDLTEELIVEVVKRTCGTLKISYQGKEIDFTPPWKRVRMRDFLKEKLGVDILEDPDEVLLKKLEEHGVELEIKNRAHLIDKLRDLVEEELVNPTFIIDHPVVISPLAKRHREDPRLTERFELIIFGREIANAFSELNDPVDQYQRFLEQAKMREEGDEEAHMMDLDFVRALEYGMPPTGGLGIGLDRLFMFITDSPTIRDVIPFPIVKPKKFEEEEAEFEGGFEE
Method: (§1) A test sample containing an amino acid as the measurement subject and a reaction mixture for quantifying amino acid having the following composition were mixed. The mixture was left standing at 30° C. to allow the AARS reaction to advance. The mixture in a volume of 33 μl, 66 μl of water, and 1 μl of a 300 U/ml yeast pyrophosphatase solution were mixed, and left standing at room temperature for 20 minutes to allow the pyrophosphatase reaction to advance. Then, the reaction mixture was mixed with 100 μl of a color development solution A and 30 μl of a color developing solution B having the following compositions, then the mixture was left standing at room temperature for 5 minutes, and the absorbance was measured at 700 nm or 900 nm with a microplate reader.
(§2) Reaction mixture for quantifying amino acid: 20 mM Tris-HCl (pH 7.0), 5 mM MgCl2, 2 mM ATP, and AARS (concentrations are final concentrations obtained after mixing with test sample)
(§3) Color developing solution A: A solution obtained by mixing water and concentrated sulfuric acid at a ratio of 3:1 and dissolving (NH4)6Mo7O24.4H2O in the mixture at a concentration of 0.066 g/ml
(§4) Color developing solution B: A solution obtained by mixing water and concentrated sulfuric acid at a ratio of 10000:7 and dissolving FeSO4.7H2O in the mixture at a concentration of 145 mg/ml
(§5) Presence or absence of pyrophosphate generation was verified for the Thermotoga-derived CysRS, HisRS, LysRS, ProRS, SerRS, TrpRS, and TyrRS by using the AARS activity measurement method described in 9. and standard solutions of the various amino acids as test samples. AARSs were added to the reaction mixture at final concentrations of 0.3 (8 mU/ml), 0.1, 0.2 (3 mU/ml), 0.2, 0.1 (1 mU/ml), 0.1, 0.2 (20 mU/ml) mg/ml, respectively. The reaction mixtures were prepared so that the final concentration of Tyr was 1 mM, and the final concentrations of the other amino acids were 5 mM. As for the hydroxylamine concentration, it was added at a final concentration of 1000 mM for all the cases. Further, presence or absence of pyrophosphate production was also verified for the Thermus-derived MetRS and TyrRS by using the AARS activity measurement method described in 10. and standard solutions of the various amino acids as test samples. The reaction mixtures were prepared so that the final concentrations of the amino acids were 200 μM. Hydroxylamine was added at a final concentration of 400 mM.
(§6) Detection or no detection of the activity in the reaction mixtures containing a combination of each AARS and amino acid are shown in Table 2. The symbol + indicates detection of the activity, and − indicates no detection of the activity.

Thermotoga-derived SerRS = molecular target: T2, Thermotoga-derived SerRS (Thermotoga maritima, UniProt Q9X199); assay: as above; type: biochemical, Thermotoga maritima MSB8 strain; conditions: Tyr 1 mM, other amino acids 5 mM; hydroxylamine 1000 mM; SerRS 0.1 mg/ml (1 mU/ml); 30° C.
T2 construct: His tag (C); made in house; host or cells: Escherichia coli BL21 (DE3)
T2 sequence (Q9X199 whole entry): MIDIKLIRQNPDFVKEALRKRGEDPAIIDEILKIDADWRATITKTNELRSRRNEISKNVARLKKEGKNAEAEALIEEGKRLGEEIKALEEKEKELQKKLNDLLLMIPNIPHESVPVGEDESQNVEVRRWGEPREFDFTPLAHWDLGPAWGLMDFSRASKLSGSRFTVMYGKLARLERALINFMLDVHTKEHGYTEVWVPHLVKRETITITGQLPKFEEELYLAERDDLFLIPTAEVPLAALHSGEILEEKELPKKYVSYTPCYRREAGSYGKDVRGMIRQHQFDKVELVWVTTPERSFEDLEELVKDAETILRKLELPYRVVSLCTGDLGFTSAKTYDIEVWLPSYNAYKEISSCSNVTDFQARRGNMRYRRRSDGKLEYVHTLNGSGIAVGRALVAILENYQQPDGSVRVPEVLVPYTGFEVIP
Method: as §1, §2, §3, §4, §5, §6

Thermotoga-derived TrpRS = molecular target: T3, Thermotoga-derived TrpRS (Thermotoga maritima, UniProt Q9WYW2); assay: as above; type: biochemical, Thermotoga maritima MSB8 strain; conditions: Tyr 1 mM, other amino acids 5 mM; hydroxylamine 1000 mM; TrpRS 0.1 mg/ml; 30° C.
T3 construct: His tag (C); made in house; host or cells: Escherichia coli BL21 (DE3)
T3 sequence (Q9WYW2 1-328): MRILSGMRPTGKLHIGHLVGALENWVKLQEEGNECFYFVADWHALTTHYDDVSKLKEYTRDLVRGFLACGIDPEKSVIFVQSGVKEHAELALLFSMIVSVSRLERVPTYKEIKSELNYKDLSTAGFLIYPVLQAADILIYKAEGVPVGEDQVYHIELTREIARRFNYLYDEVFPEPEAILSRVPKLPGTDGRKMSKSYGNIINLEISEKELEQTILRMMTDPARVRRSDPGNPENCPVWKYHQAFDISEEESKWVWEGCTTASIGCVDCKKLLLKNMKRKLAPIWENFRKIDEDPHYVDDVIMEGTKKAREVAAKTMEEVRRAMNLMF
Method: as §1, §2, §3, §4, §5, §6

Thermus-derived TyrRS = molecular target: T4, Thermus-derived TyrRS (Thermus thermophilus, UniProt P83453); assay: Qualitative test of AARS substrate specificity (AARS activity at 70° C.); type: biochemical, Thermus thermophilus HB8 strain; conditions: amino acids 200 μM, hydroxylamine 400 mM
T4 construct: host or cells: Escherichia coli BL21 (DE3)
T4 sequence (P83453 whole entry): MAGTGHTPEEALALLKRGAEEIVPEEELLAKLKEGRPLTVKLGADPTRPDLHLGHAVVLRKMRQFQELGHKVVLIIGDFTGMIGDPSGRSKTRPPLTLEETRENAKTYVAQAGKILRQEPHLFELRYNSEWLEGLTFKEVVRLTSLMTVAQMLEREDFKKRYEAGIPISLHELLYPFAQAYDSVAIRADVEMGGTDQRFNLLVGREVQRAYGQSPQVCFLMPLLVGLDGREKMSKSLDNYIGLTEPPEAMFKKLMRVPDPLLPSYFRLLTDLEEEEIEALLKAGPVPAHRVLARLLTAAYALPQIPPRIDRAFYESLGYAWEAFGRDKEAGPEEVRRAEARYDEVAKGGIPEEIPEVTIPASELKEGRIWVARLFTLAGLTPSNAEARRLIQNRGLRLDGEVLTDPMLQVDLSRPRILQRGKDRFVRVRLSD
Method: (§7) A test sample containing an amino acid as the measurement subject and a reaction mixture for quantifying amino acid having the following composition were mixed. The mixture was left standing at 70° C. to allow the AARS reaction to advance. The mixture in a volume of 600 μl, 60 μl of a 1 M 2-mercaptoethanol solution, and 240 μl of the color development solution mentioned below were mixed, then the mixture was left standing at room temperature for 20 minutes, and the absorbance was measured at 580 nm in a cuvette having an optical path length of 1 cm.
(§8) Reaction mixture for quantifying amino acid: 20 mM HEPES-NaOH (pH 8.0), 5 mM MgCl2, 0.5 mM ATP, and AARS (concentrations are final concentrations obtained after mixing with test sample)
(§9) Color developing solution: A solution obtained by mixing water and concentrated sulfuric acid at a ratio of 6:1 and dissolving (NH4)6Mo7O24.4H2O in the mixture at a concentration of 0.025 g/ml
as §5, §6

Thermus-derived MetRS = molecular target: T5, Thermus-derived MetRS (Thermus thermophilus, UniProt P23395); assay: as above; type: biochemical, Thermus thermophilus HB8 strain; conditions: amino acids 200 μM, hydroxylamine 400 mM
T5 construct: host or cells: Escherichia coli BL21 (DE3)
T5 sequence (P23395 whole entry): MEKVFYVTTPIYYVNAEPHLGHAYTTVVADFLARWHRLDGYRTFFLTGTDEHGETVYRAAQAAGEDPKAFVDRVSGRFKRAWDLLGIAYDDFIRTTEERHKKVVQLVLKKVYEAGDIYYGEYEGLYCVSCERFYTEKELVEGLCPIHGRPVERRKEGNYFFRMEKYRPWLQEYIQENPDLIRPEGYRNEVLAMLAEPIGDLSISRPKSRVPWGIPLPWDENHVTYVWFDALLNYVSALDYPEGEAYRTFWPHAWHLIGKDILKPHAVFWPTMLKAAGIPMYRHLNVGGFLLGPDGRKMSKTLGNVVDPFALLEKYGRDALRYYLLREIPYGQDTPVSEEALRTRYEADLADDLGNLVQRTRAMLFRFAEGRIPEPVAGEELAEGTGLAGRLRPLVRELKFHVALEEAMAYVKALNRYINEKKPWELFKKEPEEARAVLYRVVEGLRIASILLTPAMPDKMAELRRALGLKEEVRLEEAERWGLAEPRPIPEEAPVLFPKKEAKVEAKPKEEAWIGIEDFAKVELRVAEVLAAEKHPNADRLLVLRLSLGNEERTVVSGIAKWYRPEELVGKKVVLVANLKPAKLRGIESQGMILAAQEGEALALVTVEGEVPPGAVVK
Method: as §7, §8, §9, §5, §6

C[C@H](N)C(=O)O [Ala, L-alanine]
−: Detection of the activity (pyrophosphate generation), LysRS (Thermotoga-derived LysRS) | Detection of the activity (pyrophosphate generation), SerRS (Thermotoga-derived SerRS) | Detection of the activity (pyrophosphate generation), TrpRS (Thermotoga-derived TrpRS) | Detection of the activity (pyrophosphate production), TyrRS (Thermus) (Thermus-derived TyrRS) | Detection of the activity (pyrophosphate production), MetRS (Thermus) (Thermus-derived MetRS)

N=C(N)NCCC[C@H](N)C(=O)O [Arg, L-arginine]
−: Detection of the activity (pyrophosphate generation), LysRS (Thermotoga-derived LysRS) | Detection of the activity (pyrophosphate generation), SerRS (Thermotoga-derived SerRS) | Detection of the activity (pyrophosphate generation), TrpRS (Thermotoga-derived TrpRS) | Detection of the activity (pyrophosphate production), TyrRS (Thermus) (Thermus-derived TyrRS) | Detection of the activity (pyrophosphate production), MetRS (Thermus) (Thermus-derived MetRS)

NC(=O)C[C@H](N)C(=O)O [Asn, L-asparagine]
−: Detection of the activity (pyrophosphate generation), LysRS (Thermotoga-derived LysRS) | Detection of the activity (pyrophosphate generation), SerRS (Thermotoga-derived SerRS) | Detection of the activity (pyrophosphate generation), TrpRS (Thermotoga-derived TrpRS) | Detection of the activity (pyrophosphate production), TyrRS (Thermus) (Thermus-derived TyrRS) | Detection of the activity (pyrophosphate production), MetRS (Thermus) (Thermus-derived MetRS)

N[C@@H](CC(=O)O)C(=O)O [Asp, L-aspartic acid]
−: Detection of the activity (pyrophosphate generation), LysRS (Thermotoga-derived LysRS) | Detection of the activity (pyrophosphate generation), SerRS (Thermotoga-derived SerRS) | Detection of the activity (pyrophosphate generation), TrpRS (Thermotoga-derived TrpRS) | Detection of the activity (pyrophosphate production), TyrRS (Thermus) (Thermus-derived TyrRS) | Detection of the activity (pyrophosphate production), MetRS (Thermus) (Thermus-derived MetRS)

N[C@@H](CS)C(=O)O [Cys, L-cysteine]
−: Detection of the activity (pyrophosphate generation), LysRS (Thermotoga-derived LysRS) | Detection of the activity (pyrophosphate generation), SerRS (Thermotoga-derived SerRS) | Detection of the activity (pyrophosphate generation), TrpRS (Thermotoga-derived TrpRS) | Detection of the activity (pyrophosphate production), TyrRS (Thermus) (Thermus-derived TyrRS) | Detection of the activity (pyrophosphate production), MetRS (Thermus) (Thermus-derived MetRS)

NC(=O)CC[C@H](N)C(=O)O [Gln, L-glutamine]
−: Detection of the activity (pyrophosphate generation), LysRS (Thermotoga-derived LysRS) | Detection of the activity (pyrophosphate generation), SerRS (Thermotoga-derived SerRS) | Detection of the activity (pyrophosphate generation), TrpRS (Thermotoga-derived TrpRS) | Detection of the activity (pyrophosphate production), TyrRS (Thermus) (Thermus-derived TyrRS) | Detection of the activity (pyrophosphate production), MetRS (Thermus) (Thermus-derived MetRS)

N[C@@H](CCC(=O)O)C(=O)O [Glu, L-glutamic acid]
−: Detection of the activity (pyrophosphate generation), LysRS (Thermotoga-derived LysRS) | Detection of the activity (pyrophosphate generation), SerRS (Thermotoga-derived SerRS) | Detection of the activity (pyrophosphate generation), TrpRS (Thermotoga-derived TrpRS) | Detection of the activity (pyrophosphate production), TyrRS (Thermus) (Thermus-derived TyrRS) | Detection of the activity (pyrophosphate production), MetRS (Thermus) (Thermus-derived MetRS)

NCC(=O)O [Gly, glycine]
−: Detection of the activity (pyrophosphate generation), LysRS (Thermotoga-derived LysRS) | Detection of the activity (pyrophosphate generation), SerRS (Thermotoga-derived SerRS) | Detection of the activity (pyrophosphate generation), TrpRS (Thermotoga-derived TrpRS) | Detection of the activity (pyrophosphate production), TyrRS (Thermus) (Thermus-derived TyrRS) | Detection of the activity (pyrophosphate production), MetRS (Thermus) (Thermus-derived MetRS)

N[C@@H](Cc1c[nH]cn1)C(=O)O [His, L-histidine]
−: Detection of the activity (pyrophosphate generation), LysRS (Thermotoga-derived LysRS) | Detection of the activity (pyrophosphate generation), SerRS (Thermotoga-derived SerRS) | Detection of the activity (pyrophosphate generation), TrpRS (Thermotoga-derived TrpRS) | Detection of the activity (pyrophosphate production), TyrRS (Thermus) (Thermus-derived TyrRS) | Detection of the activity (pyrophosphate production), MetRS (Thermus) (Thermus-derived MetRS)

CC[C@H](C)[C@H](N)C(=O)O [Ile, L-isoleucine]
−: Detection of the activity (pyrophosphate generation), LysRS (Thermotoga-derived LysRS) | Detection of the activity (pyrophosphate generation), SerRS (Thermotoga-derived SerRS) | Detection of the activity (pyrophosphate generation), TrpRS (Thermotoga-derived TrpRS) | Detection of the activity (pyrophosphate production), TyrRS (Thermus) (Thermus-derived TyrRS) | Detection of the activity (pyrophosphate production), MetRS (Thermus) (Thermus-derived MetRS)

CC(C)C[C@H](N)C(=O)O [Leu, L-leucine]
−: Detection of the activity (pyrophosphate generation), LysRS (Thermotoga-derived LysRS) | Detection of the activity (pyrophosphate generation), SerRS (Thermotoga-derived SerRS) | Detection of the activity (pyrophosphate generation), TrpRS (Thermotoga-derived TrpRS) | Detection of the activity (pyrophosphate production), TyrRS (Thermus) (Thermus-derived TyrRS) | Detection of the activity (pyrophosphate production), MetRS (Thermus) (Thermus-derived MetRS)

NCCCC[C@H](N)C(=O)O [Lys, L-lysine]
−: Detection of the activity (pyrophosphate generation), SerRS (Thermotoga-derived SerRS) | Detection of the activity (pyrophosphate generation), TrpRS (Thermotoga-derived TrpRS) | Detection of the activity (pyrophosphate production), TyrRS (Thermus) (Thermus-derived TyrRS) | Detection of the activity (pyrophosphate production), MetRS (Thermus) (Thermus-derived MetRS)
+: Detection of the activity (pyrophosphate generation), LysRS (Thermotoga-derived LysRS)

CSCC[C@H](N)C(=O)O [Met, L-methionine]
+: Detection of the activity (pyrophosphate production), MetRS (Thermus) (Thermus-derived MetRS)
−: Detection of the activity (pyrophosphate generation), LysRS (Thermotoga-derived LysRS) | Detection of the activity (pyrophosphate generation), SerRS (Thermotoga-derived SerRS) | Detection of the activity (pyrophosphate generation), TrpRS (Thermotoga-derived TrpRS) | Detection of the activity (pyrophosphate production), TyrRS (Thermus) (Thermus-derived TyrRS)

N[C@@H](Cc1ccccc1)C(=O)O [Phe, L-phenylalanine]
−: Detection of the activity (pyrophosphate generation), LysRS (Thermotoga-derived LysRS) | Detection of the activity (pyrophosphate generation), SerRS (Thermotoga-derived SerRS) | Detection of the activity (pyrophosphate generation), TrpRS (Thermotoga-derived TrpRS) | Detection of the activity (pyrophosphate production), TyrRS (Thermus) (Thermus-derived TyrRS) | Detection of the activity (pyrophosphate production), MetRS (Thermus) (Thermus-derived MetRS)
